Source: BigSolDB 2.1

Cc1nnc(C(C)C)n1[C@@H]1C[C@H]2CC[C@@H](C1)N2CC[C@H](NC(=O)C1CCC(F)(F)CC1)c1ccccc1
solubility (mole fraction)
Settings | 278.15 K | 283.15 K | 288.15 K | 293.15 K | 298.15 K | 303.15 K | 308.15 K | 313.15 K | 318.15 K | 323.15 K
in DMF | 3.43e-05 | 5.31e-05 | 8.04e-05 | 0.000117 | 0.000181 | 0.000256 | 0.000364 | 0.000535 | 0.000744 | 0.00105
in DMSO | – | – | – | 5.92e-05 | 8.77e-05 | 0.000133 | 0.000189 | 0.000273 | 0.00038 | 0.000539
in ethanol | 0.000264 | 0.00038 | 0.0005 | 0.000715 | 0.00099 | 0.00142 | 0.00196 | 0.00273 | 0.0036 | 0.00458
in n-propanol | 0.00022 | 0.000327 | 0.000454 | 0.000645 | 0.000911 | 0.00126 | 0.00167 | 0.00222 | 0.00296 | 0.00395
in water | 5.73e-06 | 8.2e-06 | 1.15e-05 | 1.7e-05 | 2.47e-05 | 3.5e-05 | 5e-05 | 7.13e-05 | 9.89e-05 | 0.000137
